Results from patent EP4289427A1, “DIHYDRO[1,8]NAPHTHYRIDIN-7-ONE AND PYRIDO[3,2-B][1,4]OXAZIN-3-ONE FOR USE IN TREATING CANCER, AND METASTASES IN PARTICULAR” (Anagenesis Biotechnologies, priority 2022, dated 2023).

Legend:
RD cells = test: Cytotoxicity assay (CellTiter-Glo 2.0) on RD cells; format: cell-based, Human; settings: for IC50: Homo sapiens
Experimental: (§1) Cytotoxicity assays consist in treating cells with compounds and assessing remaining viability after a defined incubation time, depending on the cell line. CellTiter-Glo® 2.0 reagent allows viability measurement by quantification of ATP present, which is an indicator of metabolically active cells.
(§2) The cancer cell lines were cultivated in their respective growth medium (see tables 6a and 6b). On day 0 of the cytotoxicity assay, the cells were harvested and seeded into a 384-well plate at a defined density in their respective growth medium (see tables 6a and 6b). Compounds to be tested were then added onto the cells and incubated for a defined duration (see tables 6a and 6b). Following incubation, CellTiter-Glo® 2.0 reagent (cat.no. G9241 from Promega) was added into the wells (vol/vol, according to the manufacturer's recommendations), plates were gently shaken and incubated for 10 minutes in the dark at room temperature. Bioluminescence was then measured with a multimode plate reader (Victor Nivo from Perkin Elmer), and cell viability and relative IC50 were determined. Table 6a: Cancer cell characteristics, culture and cytotoxic assay conditions

EoL-1 cells = test: Cytotoxicity assay (CellTiter-Glo 2.0) on EoL-1 cells; format: cell-based, Human; settings: incubation 1 day; for IC50: Homo sapiens, EOL1, 24 h
Experimental: as §1, §2

4T1 cells = test: Cytotoxicity assay (CellTiter-Glo 2.0) on 4T1 cells; format: cell-based, Mouse; settings: incubation 2 days; for IC50: Mus musculus, 48 h
Experimental: as §1, §2

MDA-MB-231 cells = test: Cytotoxicity assay (CellTiter-Glo 2.0) on MDA-MB-231 cells; format: cell-based, Human; settings: incubation 3 days; for IC50: Homo sapiens, 72 h
Experimental: as §1, §2

HUVECs = test: Tube formation assay (anti-angiogenic activity); format: cell-based, human; settings: for IC50: Homo sapiens, HUVEC
From the text: Angiogenesis is a phenomenon that includes different processes, such as endothelial cell proliferation, migration and differentiation that lead to the formation of new blood vessels. Tube formation assay is a standard in vitro test to assess angiogenesis: briefly, human Umbilical Vein Endothelial cells (hereafter "HUVECs") cultivated on a gelled basement matrix spontaneously proliferate, migrate and differentiate to form tube-like structures, that appear elongated and that connect to each other to form a network.
HUVECs were cultivated in Endothelial Cell Growth Medium (cat.no. C-22010 from Promocell) supplemented with 1% PenStrep (hereafter "HUVEC medium"). On day 0, HUVECs were harvested and transferred into a 384-well plate precoated with 10 µl/well of Cultrex UltiMatrix Reduced Growth factor basement membrane (cat.no. BME001-10 from BioTechne), according to the manufacturer's instructions, at a density of 5000 cells/well in HUVEC medium. Compounds to be tested were then added onto the cells and incubated for 16 to 18 hours at 37°C. After this incubation period, the cells were stained with calcein-AM (cat.no. 10462052 from Fisher Scientific) and pictures were acquired using a confocal fluorescent microscope (IXM from Molecular Devices). Tube formation was measured with MetaXpress® Software.

Row | SMILES | Cytotoxicity (RD cells; 2 day-treatment) | Cytotoxicity (RD cells; 4 day-treatment) | IC50 (RD cells; 48 h, 2 day-treatment) [µM] | IC50 (RD cells; 96 h, 4 day-treatment) [µM] | IC50 (EoL-1 cells) [µM] | Cytotoxicity (EoL-1 cells) | IC50 (4T1 cells) [µM] | Cytotoxicity (4T1 cells) | IC50 (MDA-MB-231 cells) [µM] | Cytotoxicity (MDA-MB-231 cells) | IC50 (HUVECs; incubation 16 to 18 hours) [µM] | Angiogenesis inhibition (HUVECs; incubation 16 to 18 hours) | also measured
1 | CN(C)Cc1cccc(-n2nc(C(C)(C)C)cc2NC(=O)Nc2ccc(Oc3ccnc4c3CCC(=O)N4)cc2C(F)(F)F)c1 [Compound 028, 1-[5-tert-butyl-2-[3-[(dimethylamino)methyl]phenyl]pyrazol-3-yl]-3-[4-[(7-oxo-6,8-dihydro-5H-1,8-naphthyridin-4-yl)oxy]-2-(trifluoromethyl)phenyl]urea] | ++ (50% ≤ cytotoxicity < 85%) | +++ (cytotoxicity ≥ 85%) | 1 to 5 | 1 to 5 | 0.001 to 0.01 | ++ (50% ≤ cytotoxicity < 85%) | < 1 | +++ (cytotoxicity ≥ 85%) | 1 to 5 | +++ (cytotoxicity ≥ 85%) | < 0.1 | +++ (angiogenesis inhibition ≥ 80%) | –
2 | Cc1ccc(-n2nc(C(C)(C)C)cc2NC(=O)Nc2ccc(Oc3ccnc4c3OCC(=O)N4)cc2C(F)(F)F)cc1 [Compound 011, 1-[5-tert-butyl-2-(p-tolyl)pyrazol-3-yl]-3-[4-[(3-oxo-4H-pyrido[3,2-b][1,4]oxazin-8-yl)oxy]-2-(trifluoromethyl)phenyl]urea] | + (20 % ≤ cytotoxicity < 50%) | + (20 % ≤ cytotoxicity < 50%) | 5 to 10 | ≥ 10 | 0.01 to 0.1 | ++ (50% ≤ cytotoxicity < 85%) | 1 to 5 | +++ (cytotoxicity ≥ 85%) | 1 to 5 | ++ (50% ≤ cytotoxicity < 85%) | 0.1 to 0.5 | +++ (angiogenesis inhibition ≥ 80%) | –
3 | CN(C)Cc1ccc(-n2nc(C(C)(C)C)cc2NC(=O)Nc2ccc(Oc3ccnc4c3OCC(=O)N4)cc2C(F)(F)F)cc1 [Compound 049, 1-[5-tert-butyl-2-[4-(dimethylaminomethyl)phenyl]pyrazol-3-yl]-3-[4-[(3-oxo-4H-pyrido[3,2-b][1,4]oxazin-8-yl)oxy]-2-(trifluoromethyl)phenyl]urea] | +++ (cytotoxicity ≥ 85%) | +++ (cytotoxicity ≥ 85%) | 5 to 10 | 5 to 10 | 0.01 to 0.1 | ++ (50% ≤ cytotoxicity < 85%) | 1 to 5 | +++ (cytotoxicity ≥ 85%) | 5 to 10 | +++ (cytotoxicity ≥ 85%) | 0.1 to 0.5 | +++ (angiogenesis inhibition ≥ 80%) | –
4 | Cc1ccc(-n2nc(C(C)(C)C)cc2NC(=O)Nc2ccc(Oc3ccnc4c3CCC(=O)N4)cc2C(F)(F)F)cc1 [Compound 010, 1-[5-tert-butyl-2-(p-tolyl)pyrazol-3-yl]-3-[4-[(7-oxo-6,8-dihydro-5H-1,8-naphthyridin-4-yl)oxy]-2-(trifluoromethyl)phenyl]urea] | ++ (50% ≤ cytotoxicity < 85%) | ++ (50% ≤ cytotoxicity < 85%) | 5 to 10 | 5 to 10 | 0.01 to 0.1 | ++ (50% ≤ cytotoxicity < 85%) | 1 to 5 | +++ (cytotoxicity ≥ 85%) | 1 to 5 | ++ (50% ≤ cytotoxicity < 85%) | 0.1 to 0.5 | +++ (angiogenesis inhibition ≥ 80%) | –
5 | CSc1cc(Oc2ccnc3c2OCC(=O)N3)ccc1NC(=O)Nc1cc(C(C)(C)C)nn1-c1cccc(F)c1 [Compound 012, 1-[5-tert-butyl-2-(3-fluorophenyl)pyrazol-3-yl]-3-[2-methylsulfanyl-4-[(3-oxo-4H-pyrido[3,2-b][1,4]oxazin-8-yl)oxy]phenyl]urea] | ++ (50% ≤ cytotoxicity < 85%) | ++ (50% ≤ cytotoxicity < 85%) | 1 to 5 | 5 to 10 | 0.001 to 0.01 | ++ (50% ≤ cytotoxicity < 85%) | 1 to 5 | +++ (cytotoxicity ≥ 85%) | 1 to 5 | ++ (50% ≤ cytotoxicity < 85%) | < 0.1 | +++ (angiogenesis inhibition ≥ 80%) | –
6 | CSc1cc(Oc2ccnc3c2CCC(=O)N3)ccc1NC(=O)Nc1cncc(C(F)(F)F)c1 [Compound 005, 1-(2-(methylthio)-4-((7-oxo-5,6,7,8-tetrahydro-1,8-naphthyridin-4-yl)oxy)phenyl)-3-(5-(trifluoromethyl)pyridin-3-yl)urea] | + (20 % ≤ cytotoxicity < 50%) | ++ (50% ≤ cytotoxicity < 85%) | 1 to 5 | 1 to 5 | < 0.001 | +++ (cytotoxicity ≥ 85%) | 5 to 10 | ++ (50% ≤ cytotoxicity < 85%) | 1 to 5 | ++ (50% ≤ cytotoxicity < 85%) | 0.1 to 0.5 | ++ (80% > angiogenesis inhibition ≥ 50%) | –
7 | CNC(=O)c1cc(Oc2ccc(NC(=O)Nc3ccc(Cl)c(C(F)(F)F)c3)c(F)c2)ccn1 [Regorafenib, reference compound] | – | – | – | – | – | – | – | – | – | – | – | – | Cytotoxicity (RD cells; 2 day-treatment, commercial kinase inhibitors): + (20 % ≤ cytotoxicity < 50 %); Cytotoxicity (RD cells; 4 day-treatment, commercial kinase inhibitors): + (20 % ≤ cytotoxicity < 50 %); IC50 (RD cells; 48 h, 2 day-treatment, commercial kinase inhibitors): 5 to 10 µM; IC50 (RD cells; 96 h, 4 day-treatment, commercial kinase inhibitors): 1 to 5 µM; IC50 (EoL-1 cells; commercial kinase inhibitors): 0.001 to 0.01 µM; Cytotoxicity (EoL-1 cells; commercial kinase inhibitors): +++ (cytotoxicity ≥ 85%); IC50 (4T1 cells; commercial kinase inhibitors): 5 to 10 µM; Cytotoxicity (4T1 cells; commercial kinase inhibitors): ++ (50 % ≤ cytotoxicity < 85 %); IC50 (MDA-MB-231 cells; commercial kinase inhibitors): 1 to 5 µM; Cytotoxicity (MDA-MB-231 cells; commercial kinase inhibitors): ++ (50 % ≤ cytotoxicity < 85 %); IC50 (HUVECs; commercial kinase inhibitors): < 0.1 µM; Angiogenesis inhibition (HUVECs; commercial kinase inhibitors): ++ (80% > angiogenesis inhibition ≥ 50%)
8 | CSc1cc(Oc2ccnc3c2OCC(=O)N3)ccc1NC(=O)Nc1cc(C(C)(C)C)nn1-c1cccc(CN2CCOCC2)c1 [Compound 035, 1-[5-tert-butyl-2-[3-(morpholinomethyl)phenyl]pyrazol-3-yl]-3-[2-methylsulfanyl-4-[(3-oxo-4H-pyrido[3,2-b][1,4]oxazin-8-yl)oxy]phenyl]urea] | ++ (50% ≤ cytotoxicity < 85%) | ++ (50% ≤ cytotoxicity < 85%) | 1 to 5 | 5 to 10 | 0.001 to 0.01 | +++ (cytotoxicity ≥ 85%) | 1 to 5 | +++ (cytotoxicity ≥ 85%) | 1 to 5 | +++ (cytotoxicity ≥ 85%) | 0.1 to 0.5 | +++ (angiogenesis inhibition ≥ 80%) | –
9 | CSc1cc(Oc2ccnc3c2CCC(=O)N3)ccc1NC(=O)Nc1cc(C(C)(C)C)nn1-c1ccc(C)cc1 [Compound 002, 1-(3-(tert-butyl)-1-(p-tolyl)-1H-pyrazol-5-yl)-3-(2-(methylthio)-4-((7-oxo-5,6,7,8-tetrahydro-1,8-naphthyridin-4-yl)oxy)phenyl)urea] | ++ (50% ≤ cytotoxicity < 85%) | ++ (50% ≤ cytotoxicity < 85%) | 1 to 5 | 1 to 5 | 0.01 to 0.1 | +++ (cytotoxicity ≥ 85%) | 1 to 5 | +++ (cytotoxicity ≥ 85%) | 1 to 5 | ++ (50% ≤ cytotoxicity < 85%) | < 0.1 | +++ (angiogenesis inhibition ≥ 80%) | –
10 | CSc1cc(Oc2ccnc3c2CCC(=O)N3)ccc1NC(=O)Nc1cc(C(C)(C)C)nn1-c1ccccc1 [Compound 001, 1-(3-(tert-butyl)-1-phenyl-1H-pyrazol-5-yl)-3-(2-(methylthio)-4-((7-oxo-5,6,7,8-tetrahydro-1,8-naphthyridin-4-yl)oxy)phenyl)urea] | + (20 % ≤ cytotoxicity < 50%) | ++ (50% ≤ cytotoxicity < 85%) | 1 to 5 | 1 to 5 | 0.01 to 0.1 | +++ (cytotoxicity ≥ 85%) | 1 to 5 | +++ (cytotoxicity ≥ 85%) | 1 to 5 | ++ (50% ≤ cytotoxicity < 85%) | < 0.1 | +++ (angiogenesis inhibition ≥ 80%) | –
